Laboratory results taken from the supplement of paper PMC10307832.

Columns and labels:
Assay in all cases: relative viability (nuclei count vs DMSO), 5 days (fraction); higher = more cells survive
Pazopanib + Palbociclib = compound: Cc1ccc(Nc2nccc(N(C)c3ccc4c(C)n(C)nc4c3)n2)cc1S(N)(=O)=O [Pazopanib] + CC(=O)c1c(C)c2cnc(Nc3ccc(N4CCNCC4)cn3)nc2n(C2CCCC2)c1=O [Palbociclib] (partner 0.5 µM)
Method in brief: (§1)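 Relative viability divides the nuclei count in treated wells by that in vehicle wells. Lung cancer cell lines were seeded in 1536-well plates, dosed by pin tool the next day, and fixed and stained after 5 days in one step with final 0.05% Triton X-100, 1% formaldehyde and 1 ug/ml Hoechst. Dosing was a single drug or a fixed anchor-drug dose plus five library-drug doses (not always all listed) in √10 steps, and values are medians of duplicate plates imaged at 4×.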

Pazopanib + Decitabine = compound: Cc1ccc(Nc2nccc(N(C)c3ccc4c(C)n(C)nc4c3)n2)cc1S(N)(=O)=O [Pazopanib] + Nc1ncn([C@H]2C[C@H](O)[C@@H](CO)O2)c(=O)n1 [Decitabine] (partner 2 µM)
Method in brief: as §1

Ponatinib + Crizotinib = compound: Cc1ccc(C(=O)Nc2ccc(CN3CCN(C)CC3)c(C(F)(F)F)c2)cc1C#Cc1cnc2cccnn12 [Ponatinib] + C[C@@H](Oc1cc(-c2cnn(C3CCNCC3)c2)cnc1N)c1c(Cl)ccc(F)c1Cl [Crizotinib] (partner 1 µM)
Method in brief: as §1

Ponatinib + Linsitinib = compound: Cc1ccc(C(=O)Nc2ccc(CN3CCN(C)CC3)c(C(F)(F)F)c2)cc1C#Cc1cnc2cccnn12 [Ponatinib] + C[C@]1(O)C[C@@H](c2nc(-c3ccc4ccc(-c5ccccc5)nc4c3)c3c(N)nccn32)C1 [Linsitinib] (partner 1 µM)
Method in brief: as §1

| Cell Line | relative viability (Pazopanib + Palbociclib; first compound 0.01 µM) | relative viability (Pazopanib + Palbociclib; first compound 0.03162 µM) | relative viability (Pazopanib + Palbociclib; first compound 0.1 µM) | relative viability (Pazopanib + Palbociclib; first compound 0.3162 µM) | relative viability (Pazopanib + Palbociclib; first compound 1 µM) | relative viability (Pazopanib + Decitabine; first compound 0.01 µM) | relative viability (Pazopanib + Decitabine; first compound 0.03162 µM) | relative viability (Pazopanib + Decitabine; first compound 0.1 µM) | relative viability (Pazopanib + Decitabine; first compound 0.3162 µM) | relative viability (Pazopanib + Decitabine; first compound 1 µM) | relative viability (Ponatinib + Crizotinib; first compound 0.002 µM) | relative viability (Ponatinib + Crizotinib; first compound 0.006325 µM) | relative viability (Ponatinib + Crizotinib; first compound 0.06325 µM) | relative viability (Ponatinib + Crizotinib; first compound 0.2 µM) | relative viability (Ponatinib + Linsitinib; first compound 0.002 µM) | relative viability (Ponatinib + Linsitinib; first compound 0.006325 µM) | relative viability (Ponatinib + Linsitinib; first compound 0.06325 µM) | relative viability (Ponatinib + Linsitinib; first compound 0.2 µM) |
| --- | --- | --- | --- | --- | --- | --- | --- | --- | --- | --- | --- | --- | --- | --- | --- | --- | --- | --- |
| NCI-H322M | 0.495 | 0.522 | 0.478 | 0.482 | 0.55 | 0.696 | 0.748 | 0.71 | 0.8 | 0.754 | 0.913 | 0.961 | 0.816 | 0.66 | 0.854 | 0.897 | 1.03 | 0.819 |
| NCI-H358 | 0.134 | 0.141 | 0.121 | 0.112 | 0.122 | 0.217 | 0.22 | 0.219 | 0.25 | 0.276 | 0.536 | 0.512 | 0.517 | 0.502 | 0.847 | 0.771 | 0.758 | 0.522 |
| NCI-H441 | 0.24 | 0.248 | 0.198 | 0.211 | 0.273 | 0.239 | 0.272 | 0.229 | 0.257 | 0.252 | 0.576 | 0.632 | 0.835 | 0.607 | 0.48 | 0.576 | 0.478 | 0.5 |
| NCI-H460 | 0.212 | 0.287 | 0.122 | 0.0783 | 0.262 | 0.561 | 0.513 | 0.551 | 0.488 | 0.552 | 0.764 | 0.863 | 1.02 | 0.908 | 0.74 | 0.795 | 1.1 | 0.744 |
| NCI-H520 | 0.185 | 0.23 | 0.244 | 0.224 | 0.188 | 0.48 | 0.471 | 0.569 | 0.509 | 0.572 | 0.682 | 0.843 | 0.841 | 0.581 | 0.773 | 1 | 0.867 | 0.628 |
| NCI-H647 | 0.345 | 0.463 | 0.363 | 0.361 | 0.29 | 0.402 | 0.408 | 0.344 | 0.487 | 0.295 | 0.851 | 1.07 | 1.12 | 0.989 | 1.22 | 1.01 | 1.05 | 1.1 |
| NCI-H650 | 0.344 | 0.381 | 0.355 | 0.337 | 0.315 | 0.303 | 0.299 | 0.353 | 0.293 | 0.353 | 0.598 | 0.663 | 0.695 | 0.605 | 0.641 | 0.83 | 0.809 | 0.743 |
| NCI-H661 | 0.376 | 0.386 | 0.427 | 0.422 | 0.396 | 0.498 | 0.576 | 0.578 | 0.598 | 0.596 | 1.02 | 1.04 | 0.99 | 1.13 | 0.54 | 0.598 | 0.692 | 0.565 |
| NCI-H727 | 0.662 |  | 0.634 | 0.597 | 0.718 | 0.724 |  | 0.879 | 0.885 | 1.02 | 0.853 | 0.686 | 0.893 | 0.765 | 0.268 | 0.328 | 0.378 | 0.173 |
| NCI-H838 | 0.181 | 0.216 | 0.243 | 0.258 | 0.246 | 0.458 | 0.462 | 0.507 | 0.414 | 0.523 | 0.793 | 0.95 | 0.813 | 0.789 | 0.939 | 1.05 | 1.19 | 0.858 |
| NCI-H1355 | 0.33 | 0.4 | 0.426 | 0.407 | 0.45 | 0.355 | 0.314 | 0.367 | 0.358 | 0.386 | 0.989 | 1.06 | 1.16 | 1.15 | 0.833 | 0.916 | 1.08 | 0.947 |
| NCI-H1437 | 0.327 | 0.313 | 0.284 | 0.338 | 0.313 | 0.541 | 0.611 | 0.626 | 0.602 | 0.567 | 0.899 | 0.957 | 0.967 | 0.763 | 0.999 | 1.05 | 1.05 | 0.915 |
| NCI-H1651 | 0.51 | 0.555 | 0.523 | 0.489 | 0.555 | 0.543 | 0.644 | 0.644 | 0.552 | 0.656 | 0.835 | 0.852 | 0.897 | 0.876 | 0.906 | 0.978 | 1.09 | 0.932 |
| NCI-H1666 | 0.636 | 0.604 | 0.607 | 0.694 | 0.667 | 0.703 | 0.716 | 0.636 | 0.76 | 0.765 | 0.951 | 0.978 | 1.06 | 0.989 | 0.765 | 0.916 | 1.09 | 0.859 |
| NCI-H1734 | 0.33 | 0.369 | 0.353 | 0.378 | 0.344 | 0.498 | 0.492 | 0.461 | 0.532 | 0.512 | 0.638 | 0.657 | 0.647 | 0.577 | 0.792 | 0.864 | 1 | 0.754 |
| NCI-H1755 | 0.423 | 0.454 | 0.47 | 0.457 | 0.467 | 0.718 | 0.709 | 0.742 | 0.773 | 0.783 | 0.858 | 0.869 | 0.896 | 0.822 | 0.984 | 0.949 | 1.05 | 0.986 |
| NCI-H1792 |  | 0.632 | 0.598 | 0.649 | 0.71 |  | 0.549 | 0.456 | 0.621 | 0.524 | 0.956 | 0.988 | 1.1 | 0.976 | 0.525 | 0.591 | 0.572 | 0.521 |
